Laboratory results as given in patent US10526580B2, “Differentiated cell population of endothelial cells derived from human pluripotent stem cells, composition, system, kit and uses thereof” (BIOCANT-ASSOCIAÇÃO DE TRANSFERÊNCIA DE TECNOLOGIA, priority 2012, dated 2020).

Experiments:
[1] = tested on: CD31+ cells; experiment: Shh and Notch signaling modulators, arterial and venous marker expression in CD31+ cells; assay type: cell-based, human; settings: for expression of arterial EC markers EphB2 (protein level), HEY-2, JAG-1 and EFNB1 (gene level) / expression of venous EC markers Lefty-1 and Lefty-2: purmorphamine 1 μM and DLL4 100 ng/mL together, versus cells without activators; for expression of arterial marker EphB2: cyclopamine 5 μM and Notch inhibitor L685458 1 μM together
Description: hESC culture and differentiation. Undifferentiated hESCs (passages 33-36; H9, WiCell, Wisconsin) or hiPSCs K2 (passages 32-35; cord blood derived iPSCs kindly donated by Ulrich Martin) were grown on an inactivated mouse embryonic fibroblast (MEF) feeder layer, as previously described 1, 2. To induce the formation of EBs, the undifferentiated hESCs were treated with 2 mg/mL type IV collagenase (Invitrogen) for 2 h and then transferred (2:1) to low attachment plates (Corning) containing 10 mL of differentiation medium [80% KO-DMEM, 20% fetal bovine serum (FBS, Invitrogen), 0.5% L-glutamine, 0.2% β-mercaptoethanol, 1% nonessential amino acids]. The differentiation medium was supplemented with VEGF165 (50 ng/mL, Prepotech), Tβ4 (100 ng/mL, Caslo) and SB431542 (10 μM, Tocris) according to the following timeline: [(VEGF165)days0-18+(Tβ4)days4-18+(SB431542)days7-18]. After 4 days in suspension, EBs were plated onto 1% gelatin-coated dishes and grown for 14 additional days. Medium was changed every 2-3 days. To evaluate the contribution of Shh and Notch signaling pathways, the differentiation medium was supplemented with one or two of the following agents: 1 μM purmorphamine (Shh activator; Cayman Chemical), 5 μM cyclopamine (Shh inhibitor; Sigma), 100 ng/ml DLL-4 (Notch activator; Prepotech), or 1 μM Y^−-secretase inhibitor L685458 (Notch inhibitor; Tocris Biosciences) 47.
Arterial and venous gene expression was analyzed in CD31^+ cells at the time of their isolation. […] Because arterial/vein specification during mouse embryogenesis is in large part mediated by Notch and Sonic Hedgehog (Shh), the expression of Notch (Notch1, Notch2, Notch3, Notch4) and Shh (patched 1) receptors as well as Notch (DLL1, DLL3, DLL4, JAG-1, JAG-2) and Shh transcription factors (GLI1 and SMO) in CD31^+ cells was assessed (FIG. 1E). […] Was also studied the involvement of Notch and Shh signaling pathways in the gene expression of arterial and venous markers in cells after CD31^+ cell isolation. The independent activation of each signaling pathway has little impact in the expression of arterial marker EphB2 (FIG. 1F).

[2] = tested on: hESC-derived ECs; experiment: Vascular toxicity of terbinafine in static or flow culture (morphology, qRT-PCR, ELISA); assay type: cell-based, human
Description: (§1) Fluidic shear stress experiments. HESC-derived ECs (2.6×10^6 cells/mL), HUAECs, HUVECs were seeded on flow chamber untreated-slides (μ-slide 0.4, luer, IBIDI) and grown until confluence. Using a programmed IBIDI pump with positive pressure, the cell monolayer was perfused with EGM-2 medium for 7 days, at flow rate of 15.1 mL/min (corresponding to shear stress of 20 dyne/cm2), or 3.02 mL/min (corresponding to shear stress of 4 dyne/cm2). After 7 days the flow was stopped, the cells imaged, and then stained or collected for posterior gene analysis. Medium was collected for ELISA assays. In some experiments, cells were cultured in medium supplemented with terbinafine (0.1 μM or 1 μM) (Sigma) for a maximum of 24 h, under shear stress. Static controls were performed in the chamber coated-slides but without flow. The IBIDI slides allow a laminar perfusion in rectangular flow geometry.
(§2) Evaluation of the levels of vascular injury by specific markers. ELISA kits analyzed supernatants collected from the shear stress experiments for vWF and vWFpp (Gen-Probe GTI Diagnostic) and ADMA (Enzo Life Sciences), according to manufacturer's recommendations.
Terbinafine is an antifungal agent (inhibitor of ergosterol synthesis) that inhibits angiogenesis by suppressing endothelial cell proliferation, inhibits DNA synthesis and activates EC apoptosis^34, 35. Terbinafine is cytotoxic for HUVECs for concentrations above 120 μM^35. To determine whether the hESC-derived ECs cultured under flow conditions could be used to assess vascular toxicity, cells were cultured for 7 days at 20 dyne/cm2 after which the culture medium was supplemented or not with terbinafine (0.1 and 1 μM) and cells cultured under the same flow conditions for one more day. […] Next, was assessed by qRT-PCR the expression of genes involved in inflammation (ICAM-1; E-selectin), oxidative stress sensing (HO-1) and vasculature modulation (eNOS) in hESC-derived cells and control HUAEC after exposition to terbinafine (FIG. 3B). As expected, the expression of these genes increases under fluidic shear stress^36. […] Upregulation of some genes (HO-1 and E-selectin) was only observed for concentrations of 1 μM in HUAECs. […] ADMA is a naturally occurring amino acid that circulates in plasma and is generated by degradation of methylated proteins. Increase levels of ADMA inhibits nitric oxide (NO) production by competitive inhibition of the physiological substrate L-arginine^38. Drugs that inhibit NO pathway, upregulate caveolin-1 expression and/or enhance ADMA levels could potentially be associated with drug-induced endothelial dysfunction. Therefore, increased circulating levels of ADMA may serve as predictive marker of EC dysfunction^38. […] Such effect was not observed for HUAECs cultured under the same conditions. […] In addition, hESC-derived ECs are more sensitive to the effect of terbinafine than HUAECs.
Next, the vascular damage/injury induced by terbinafine was assessed in hESC-derived ECs and control HUAECs, in the same conditions as before, by measuring the levels of ADMA and the ratio von Willebrand factor pro-peptide (vWFpp): von Willebrand factor (vWF) secreted by these cells (FIG. 3C). The last 2 proteins with different biological activity are released in equimolar concentrations in plasma and an increased level of both proteins predicts EC activation/injury. […] Remarkably, hESC-derived ECs cultured under flow conditions in the presence of terbinafine secrete higher levels of ADMA and vWFpp:vWF than without the drug. Again, the sensitivity of HUAECs to terbinafine was lower than hESC-derived ECs. The concentration of ADMA secreted by hESC-derived cells at 24 h is 3.5 times higher than in basal conditions. Importantly, this shift in concentration is observed in human patients with cardiovascular diseases. Healthy persons have an average of 0.45±0.19 μmol of ADMA per liter of blood and this value increases 2.2 or 2.7 folds when the patient has idiopathic pulmonary arterial hypertension^37. […]

[3] = tested on: HUAECs; experiment: Vascular toxicity of terbinafine in static or flow culture (qRT-PCR, ELISA); assay type: cell-based, human
Description: as §1, §2
Terbinafine is an antifungal agent (inhibitor of ergosterol synthesis) that inhibits angiogenesis by suppressing endothelial cell proliferation, inhibits DNA synthesis and activates EC apoptosis^34, 35. Terbinafine is cytotoxic for HUVECs for concentrations above 120 μM^35. To determine whether the hESC-derived ECs cultured under flow conditions could be used to assess vascular toxicity, cells were cultured for 7 days at 20 dyne/cm2 after which the culture medium was supplemented or not with terbinafine (0.1 and 1 μM) and cells cultured under the same flow conditions for one more day. […] Next, was assessed by qRT-PCR the expression of genes involved in inflammation (ICAM-1; E-selectin), oxidative stress sensing (HO-1) and vasculature modulation (eNOS) in hESC-derived cells and control HUAEC after exposition to terbinafine (FIG. 3B). As expected, the expression of these genes increases under fluidic shear stress^36. […] Upregulation of some genes (HO-1 and E-selectin) was only observed for concentrations of 1 μM in HUAECs. […] ADMA is a naturally occurring amino acid that circulates in plasma and is generated by degradation of methylated proteins. Increase levels of ADMA inhibits nitric oxide (NO) production by competitive inhibition of the physiological substrate L-arginine^38. […]
Next, the vascular damage/injury induced by terbinafine was assessed in hESC-derived ECs and control HUAECs, in the same conditions as before, by measuring the levels of ADMA and the ratio von Willebrand factor pro-peptide (vWFpp): von Willebrand factor (vWF) secreted by these cells (FIG. 3C). […]

[4] = tested on: HUVECs; settings: cited from earlier work
[5] = flow conditions, medium supplemented with terbinafine

With DLL4: Notch activator the “expression of arterial EC markers EphB2 (protein level), HEY-2, JAG-1 and EFNB1 (gene level)” value [1] was “significantly increased” and the “expression of venous EC markers Lefty-1 and Lefty-2” value [1] was “decreased”.

With `CN(C/C=C/C#CC(C)(C)C)Cc1cccc2ccccc12` [terbinafine] the “changes in EC morphology and cadherin expression” value ([2]; flow 20 dyne/cm2, terbinafine 0.1 and 1 μM, day 8) was “No significant changes”, the “secretion of ADMA and vWFpp:vWF versus without the drug” value ([2]; flow conditions, ELISA) was “higher levels” and the “concentration of ADMA secreted, relative to basal conditions” value ([2]; flow conditions, at 24 h, ELISA) was 3.5 times. For the same molecule, the “expression of DDAH1 and DDAH2” value [2, 5] was “significant decrease”, the “secretion of ADMA or vWFpp:vWF versus control conditions” value ([2]; static conditions, ELISA) was “no significant higher secretion” and the “expression of ICAM-1, E-selectin, HO-1 and eNOS genes (qRT-PCR)” value ([2]; terbinafine at 0.1 μM, flow 20 dyne/cm2, 24 h) was “higher”. For the same molecule, the “concentration at which upregulation of some genes (HO-1 and E-selectin) was observed” value ([3]; flow 20 dyne/cm2, 24 h) was 1000 nM, the “secretion of vWFpp:vWF” value ([3]; flow conditions, exposed to terbinafine, ELISA) was “higher levels” and the “decrease in the expression of DDAH1 and DDAH2” value [3, 5] was “not observed”. The “secretion of ADMA or vWFpp:vWF versus control conditions” value ([3]; static conditions, ELISA) was “no significant higher secretion” and the “concentrations cytotoxic for HUVECs” value [4] was “above 120 μM”.

In the case of `CC(C)C[C@H](NC(=O)[C@H](Cc1ccccc1)C[C@@H](O)[C@H](Cc1ccccc1)NC(=O)OC(C)(C)C)C(=O)N[C@@H](Cc1ccccc1)C(N)=O` [L685458], the “expression of arterial marker EphB2” value [1] was “significantly decreased”.

In the case of `c1ccc2c(Oc3nc(Nc4ccc(N5CCOCC5)cc4)c4ncn(C5CCCCC5)c4n3)cccc2c1` [purmorphamine], the “expression of arterial EC markers EphB2 (protein level), HEY-2, JAG-1 and EFNB1 (gene level)” value [1] was “significantly increased” and the “expression of venous EC markers Lefty-1 and Lefty-2” value [1] was “decreased”.

With `CC1=C2C[C@H]3[C@@H](CC=C4C[C@@H](O)CC[C@@]43C)[C@@H]2CC[C@]12O[C@@H]1C[C@H](C)CN[C@H]1[C@H]2C` [cyclopamine] the “expression of arterial marker EphB2” value [1] was “significantly decreased”.
